Data set [1] addresses T1, CYP2D6 (Homo sapiens, UniProt P10635).
T1 construct: containing Human Liver Microsomes (HLM) (0.5 mg/mL); from tissue; host or cells: human liver microsomes
Kind of data set: CYP450 enzyme inhibition assay, CYP2D6. The data set is classed as in vitro ADME. The note with it: human liver microsomes; for IC50: dextromethorphan probe. The procedure: Protocol was based on literature [Perez-Del Palacio et al. (2017) Front Pharmacol 8, 202]. Assessment of CYP450 inhibition was conducted in 96-well plate format at 37° C. Test compounds were dissolved in DMSO/acetonitrile (2 μL) and diluted in 98 μL NADPH solution (2 mM). Reactions were started by addition of 100 μL potassium phosphate buffer (200 mM, pH 7.4) containing Human Liver Microsomes (HLM) (0.5 mg/mL). Probe reactions for CYP3A4, CYP2D6 and CYP2C9 were conducted with 50 μM testosterone, 22 μM dextromethorphan and 10 μM diclofenac for 15 min. Reactions were terminated with the addition of a quench solution (90 μL) of acetonitrile containing internal standards for LC-MS/MS determination (60 ppb cortisone, 100 ppb 4′-hydroxydiclofenac 13C6, 60 ppb levallorphan).
(Liver microsomes are vesicles of endoplasmic reticulum, rich in cytochrome P450 enzymes.)

The target of data set [2] is T2, hERG channel (Homo sapiens, UniProt Q12809).
T2 construct: expressed in transfected cells; host or cells: HEK293
In words: Cardiotoxicity fluorescence-based assay, hERG channel. The format is cell-based. To be noted: HEK293 cells. The procedure: Fluorescence-based assays were performed using HEK293 cell lines that stably express the Nav1.5-channel, Cav1.2-channel or hERG K+-channel, using FMP Red Dye (Molecular Devices), calcium-sensitive fluorescent dye Fluo-4 (Invitrogen) and FIuxOR™ reagent (Invitrogen), respectively, and a FLIPR Tetra High-Throughput Cellular Screening System (Molecular Devices), according to manufacturer's protocols (Molecular Devices). Tetrodotoxin (TTX), israpidine and nicarpidine, and astemizole and haloperidol were used as standard sodium channel, calcium channel, and hERG channel blockers. Data were analyzed using Genedata Screener.

Data set [3] relates to SHSY5Y cells. In words: Cell viability MTT assay, SHSY5Y cells. The format is cell-based, human. The note with it: 24 h incubation; for IC50: read-out: Cytotoxicity SHSY5Y cells IC50. The protocol:
(§1) Protocol was based on literature [Patel and Patel. (2011) J. App. Pharm. Sci 1, 167-171]. Three cell lines were used: a) Hep G2 (HB-8065), a well-differentiated human hepatocellular carcinoma cell line, b) THLE-2, human liver epithelial cells transformed with SV40 large T-antigen and c) SHSYSY, a thrice-cloned sub-line of a human metastatic bone tumor. Cells were seeded at a concentration of 1×10^4 cells/well in 200 μL culture medium and incubated at 37° C. in 5% CO2 using 96-well plates for 24 h. Next, the medium was replaced with medium complemented with test compounds. After another 24 h incubation, the medium was replaced by 100 μL of a MTT (3-(4,5-dimethylthiazol-2-yl)-2,5-diphenyltetrazolium bromide) solution (5 mg/mL in PBS and diluted at 0.5 mg/mL in MEM without phenol red). The plates were gently shaken and incubated for 3 hours at 37° C. in a 5% CO2 incubator. The supernatant was removed and 100 μL of 100% DMSO was added. The plates were gently shaken to solubilize the formed formazan. The absorbance was measured using a multireader (Victor2 (Wallac)) at a wavelength of 570 nm.
For orientation: Tetrazolium dyes change colour on reduction, which living cells bring about.

Data set [4] concerns HEPG2 cells. Kind of data set: Cell viability MTT assay, HEPG2 cells. The format is cell-based, human. The note with it: 24 h incubation; for IC50: read-out: Cytotoxicity HEPG2 cells IC50. The protocol: as §1
Data set [5] concerns PTZ-induced epileptiform brain activity in zebrafish larvae. In words: Zebrafish PTZ seizure model, local field potential recordings (electrophysiology). The format is in vivo, Danio rerio. The note with it: 10 min recording, vs VHC+PTZ; for reduction of percentage of larvae with PTZ-induced epileptiform activity: MTC and optimal incubation time (2 h azaspirofuran, 18 h pseurotins), 15 min PTZ; for cumulative duration of epileptiform events / number of epileptiform events: MTC and optimal incubation time. The source says:
To determine whether azaspirofuran A and pseurotin A2 can ameliorate the PTZ-induced hyperexcitable state of the brain that is characterized by epileptiform discharges, local field potential (LFP) recordings were non-invasively measured from the midbrain (optic tectum) of zebrafish larvae [Zdebik et al. (2013) PLoS One 8, e79765; Britton et al. (2016) In Electroencephalography (EEG): An Introductory Text and Atlas of Normal and Abnormal Findings in Adults, Children, and Infants (St. Louis and Frey, Eds.), Chicago]. To that end larvae were treated with either VHC or test compound (MTC and optimal incubation time were used) followed by a 15 min during exposure to PTZ or VHC prior to the electrophysiology measurements (FIG. 4). […] Thus, both compounds not only ameliorate PTZ-induced seizures but are likely to do so by lowering the PTZ-induced hyperexcitable state of the brain.
Experimental procedure was described before [Zdebik et al. (2013) PLoS One 8, e79765; Sourbron et al. (2017) Front. Pharmac. 8, 191; Copmans et al. (2018) Neurochem. Int. 112, 124-133.]. Non-invasive LFP recordings were measured from the midbrain (optic tectum) of 7 dpf zebrafish larvae pre-incubated with VHC only, PTZ only, compound and VHC, or compound and PTZ. Larvae were incubated for approximately 2 or 18 hours with VHC (1% DMSO) or compound (1% DMSO) in a 100 μL volume. After incubation, 100 μL of VHC (embryo medium) or 40 mM PTZ (dissolved in embryo medium, 20 mM working concentration) was added to the well for 15 min prior to recording. These steps occurred at 28° C., while further manipulation and electrophysiological recordings occurred at room temperature (21° C.). The larva was embedded in 2% low melting point agarose (Invitrogen) and the signal electrode (an electrode inside a soda-glass pipet (1412227, Hilgenberg) pulled with a DMZ Universal Puller (Zeitz, Germany), diameter±20 microns, containing artificial cerebrospinal fluid (ACSF: 124 mM NaCl, 10 mM glucose, 2 mM KCl, 2 mM MgSO4, 2 mM CaCl2, 1.25 mM KH2PO4, and 26 mM NaHCO3, 300-310 mOsmols)) was positioned on the skin covering the optic tectum. A differential extracellular amplifier (DAGAN, USA) amplified the voltage difference between the signal (measured by the signal electrode) and the reference electrode. The differential signal was band pass filtered at 0.3-300 Hz and digitized at 2 kHz via a PCI-6251 interface (National instruments, UK) using WinEDR (John Dempster, University of Strathclyde, UK). A grounding electrode grounded the electrical system. All electrodes were connected with ACSF. Each recording lasted 600 seconds. Manual analysis was completed by quantification of the number, cumulative duration, and mean duration of epileptiform-like events with Clampfit 10.2 software (Molecular Devices Corporation, USA). An electrical discharge was considered epileptiform if it was a poly-spiking event comprising at least 3 spikes with a minimum amplitude of three times the baseline amplitude and a duration of at least 100 milliseconds. Data are expressed as mean±SD for the number and cumulative duration of epileptiform events and as mean±SEM for the mean duration of events.

The IC50 is the concentration needed to halve the response being measured.

T1 sequence (P10635 whole entry): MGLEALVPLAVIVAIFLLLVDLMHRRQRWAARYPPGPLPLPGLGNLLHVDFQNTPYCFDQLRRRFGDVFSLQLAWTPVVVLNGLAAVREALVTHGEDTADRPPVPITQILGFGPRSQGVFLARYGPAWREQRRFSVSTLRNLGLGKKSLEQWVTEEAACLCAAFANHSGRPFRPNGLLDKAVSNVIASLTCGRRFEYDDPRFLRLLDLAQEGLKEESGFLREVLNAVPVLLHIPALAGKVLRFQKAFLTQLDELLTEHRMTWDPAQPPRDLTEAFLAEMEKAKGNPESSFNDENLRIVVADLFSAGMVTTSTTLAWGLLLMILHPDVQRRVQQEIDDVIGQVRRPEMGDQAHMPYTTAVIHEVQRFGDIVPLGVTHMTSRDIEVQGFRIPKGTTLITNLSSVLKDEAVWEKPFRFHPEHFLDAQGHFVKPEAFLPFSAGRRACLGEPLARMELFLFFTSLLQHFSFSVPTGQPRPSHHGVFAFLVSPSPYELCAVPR
T2 sequence (Q12809 whole entry): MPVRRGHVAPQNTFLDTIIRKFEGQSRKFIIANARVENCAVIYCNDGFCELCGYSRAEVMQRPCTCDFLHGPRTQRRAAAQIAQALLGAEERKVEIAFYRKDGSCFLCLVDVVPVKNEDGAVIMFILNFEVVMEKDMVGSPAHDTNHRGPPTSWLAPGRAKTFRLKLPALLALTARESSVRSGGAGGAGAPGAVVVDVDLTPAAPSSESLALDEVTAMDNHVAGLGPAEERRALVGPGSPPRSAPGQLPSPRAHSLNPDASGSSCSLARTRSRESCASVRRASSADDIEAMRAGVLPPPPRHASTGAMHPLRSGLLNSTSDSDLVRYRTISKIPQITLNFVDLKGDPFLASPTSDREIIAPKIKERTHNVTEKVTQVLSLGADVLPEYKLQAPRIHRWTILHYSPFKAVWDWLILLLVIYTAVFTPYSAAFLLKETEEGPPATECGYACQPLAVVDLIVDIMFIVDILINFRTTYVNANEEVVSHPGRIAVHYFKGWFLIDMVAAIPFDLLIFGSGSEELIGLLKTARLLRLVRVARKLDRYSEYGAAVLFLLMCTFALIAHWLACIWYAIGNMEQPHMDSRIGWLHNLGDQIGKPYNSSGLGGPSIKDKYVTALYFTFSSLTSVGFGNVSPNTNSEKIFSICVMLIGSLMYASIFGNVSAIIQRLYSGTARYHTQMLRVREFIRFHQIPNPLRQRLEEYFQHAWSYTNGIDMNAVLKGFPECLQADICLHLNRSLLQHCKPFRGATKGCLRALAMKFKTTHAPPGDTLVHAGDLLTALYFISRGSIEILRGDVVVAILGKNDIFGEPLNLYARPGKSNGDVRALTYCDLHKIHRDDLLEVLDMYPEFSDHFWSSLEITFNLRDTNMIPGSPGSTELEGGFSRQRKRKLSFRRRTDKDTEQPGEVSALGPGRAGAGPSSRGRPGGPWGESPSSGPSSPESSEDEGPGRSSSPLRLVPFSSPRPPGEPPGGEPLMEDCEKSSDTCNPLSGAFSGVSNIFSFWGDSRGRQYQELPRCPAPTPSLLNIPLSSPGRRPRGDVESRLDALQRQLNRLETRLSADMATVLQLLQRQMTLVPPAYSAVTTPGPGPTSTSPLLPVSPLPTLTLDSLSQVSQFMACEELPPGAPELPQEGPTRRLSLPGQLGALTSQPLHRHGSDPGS

Consider `CCc1ccc(C2=C(C)C(=O)C3(O2)C(=O)NC(OC)(C(=O)c2ccccc2)C3O)o1` (stereo not shown) [azaspirofuran A], for which, in data set [1], the “CYP2D6, effect” value is recorded as “Weak” and the IC50 stood at 23.4 µM. In addition, in data set [2], the “Cardiotoxicity hERG channel, effect” value is listed as “No effect” and the IC50 is over 50 µM. Also, in data set [3], the “Cytotoxicity SHSY5Y cells, effect” value is “Weak” and the IC50 is over 50 µM. For the same compound, in data set [4], the “Cytotoxicity HEPG2 cells, effect” value was “No effect” and the IC50 is over 50 µM. Further, in data set [5], the “reduction of percentage of larvae with PTZ-induced epileptiform activity” value is given as about 60%, the “cumulative duration of epileptiform events” value was “shorter cumulative duration of events” and the “number of epileptiform events” value is “significantly less epileptiform events”.
With `CC/C=C\[C@H](O)[C@H](O)C1=C(C)C(=O)[C@]2(O1)C(=O)N[C@](OC)(C(=O)c1ccccc1)[C@H]2O` [pseurotin A2], in data set [1], the “CYP2D6, effect” value is given as “No effect” and the half-inhibitory concentration (IC50) is over 88 µM. In data set [2], the “Cardiotoxicity hERG channel, effect” value is on record as “No effect” and the concentration for half-maximal inhibition (IC50) is over 50 µM. Moreover, in data set [3], the “Cytotoxicity SHSY5Y cells, effect” value is on record as “Decrease” and the IC50 came out at 17.9 µM. In data set [4], the “Cytotoxicity HEPG2 cells, effect” value is given as “No effect” and the IC50 is over 50 µM. In addition, in data set [5], the “reduction of percentage of larvae with PTZ-induced epileptiform activity” value stood at 33%, the “cumulative duration of epileptiform events” value is “shorter cumulative duration of events” and the “number of epileptiform events” value is given as “significantly less epileptiform events”.

Source of the values: patent US20200253929A1, “TREATMENT OF EPILEPSY” (priority 2017, published 2020).
